The kinase profiling compilation of Christmann-Franck et al. (2016)

What was measured:
Assay in all cases: KINOMEscan competition binding
Details in all cases: compound 10.0 µM
[1] = biological target: ALK (human) (UniProt Q9UM73)
[2] = biological target: DMPK (human) (UniProt Q09013)
[3] = biological target: GAK (human) (UniProt O14976)
[4] = biological target: CDK5 (human) (UniProt Q00535)
[5] = biological target: EIF2AK1 (human) (UniProt Q9BQI3)
[6] = biological target: PRKCE (human) (UniProt Q02156)
[7] = biological target: ACVR2A (human) (UniProt P27037)
Sequence of ACVR2A (human) (P27037 whole entry, looked up): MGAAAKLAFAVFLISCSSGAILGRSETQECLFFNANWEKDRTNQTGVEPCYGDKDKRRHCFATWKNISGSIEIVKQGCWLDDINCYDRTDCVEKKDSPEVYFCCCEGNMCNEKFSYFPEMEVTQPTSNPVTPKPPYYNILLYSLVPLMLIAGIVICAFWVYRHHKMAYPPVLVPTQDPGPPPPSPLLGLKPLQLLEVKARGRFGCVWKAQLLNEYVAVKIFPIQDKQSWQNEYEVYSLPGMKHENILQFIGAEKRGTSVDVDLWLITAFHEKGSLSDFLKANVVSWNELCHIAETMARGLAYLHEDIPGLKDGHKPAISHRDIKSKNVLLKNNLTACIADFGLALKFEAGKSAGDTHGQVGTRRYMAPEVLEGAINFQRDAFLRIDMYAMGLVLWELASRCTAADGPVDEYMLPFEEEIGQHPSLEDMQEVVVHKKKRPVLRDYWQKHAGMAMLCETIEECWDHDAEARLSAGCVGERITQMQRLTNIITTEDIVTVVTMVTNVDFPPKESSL

[8] = biological target: JAK1 JH1 catalytic (human) (UniProt P23458)
[9] = biological target: TNIK (human) (UniProt Q9UKE5)
[10] = biological target: ERBB3 (human) (UniProt P21860)
[11] = biological target: NUAK1 (human) (UniProt O60285)
[12] = biological target: LATS2 (human) (UniProt Q9NRM7)
[13] = biological target: RIPK4 (human) (UniProt P57078)
[14] = biological target: RPS6KA2 KD1 (human) (UniProt Q15349)
Sequence of RPS6KA2 KD1 (human) (Q15349 whole entry, looked up): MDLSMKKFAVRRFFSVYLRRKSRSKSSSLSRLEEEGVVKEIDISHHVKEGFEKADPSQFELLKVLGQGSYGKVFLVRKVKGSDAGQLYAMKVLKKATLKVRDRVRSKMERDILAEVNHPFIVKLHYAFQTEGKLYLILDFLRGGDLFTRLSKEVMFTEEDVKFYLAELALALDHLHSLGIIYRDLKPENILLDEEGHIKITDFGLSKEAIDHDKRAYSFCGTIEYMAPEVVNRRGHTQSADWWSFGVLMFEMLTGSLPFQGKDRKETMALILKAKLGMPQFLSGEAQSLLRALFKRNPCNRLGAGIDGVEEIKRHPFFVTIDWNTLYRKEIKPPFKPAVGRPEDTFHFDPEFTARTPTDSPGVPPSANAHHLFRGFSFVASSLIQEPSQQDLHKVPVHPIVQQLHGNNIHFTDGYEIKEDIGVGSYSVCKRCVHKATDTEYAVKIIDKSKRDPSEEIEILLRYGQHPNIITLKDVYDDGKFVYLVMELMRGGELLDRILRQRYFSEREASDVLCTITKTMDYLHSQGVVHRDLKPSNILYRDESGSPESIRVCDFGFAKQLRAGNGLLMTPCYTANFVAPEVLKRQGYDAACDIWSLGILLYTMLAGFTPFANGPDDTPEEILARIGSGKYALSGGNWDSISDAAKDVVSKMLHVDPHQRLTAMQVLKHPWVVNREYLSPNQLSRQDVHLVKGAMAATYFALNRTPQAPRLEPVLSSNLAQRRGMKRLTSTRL

[15] = biological target: FLT3 (human) (UniProt P36888)
[16] = biological target: HIPK3 (human) (UniProt Q9H422)
[17] = biological target: CAMKK2 (human) (UniProt Q96RR4)
[18] = biological target: MAP3K5 (human) (UniProt Q99683)
[19] = biological target: AURKB (human) (UniProt Q96GD4)
[20] = biological target: DYRK1A (human) (UniProt Q13627)
[21] = biological target: AKT2 (human) (UniProt P31751)
Sequence of AKT2 (human) (P31751 whole entry, looked up): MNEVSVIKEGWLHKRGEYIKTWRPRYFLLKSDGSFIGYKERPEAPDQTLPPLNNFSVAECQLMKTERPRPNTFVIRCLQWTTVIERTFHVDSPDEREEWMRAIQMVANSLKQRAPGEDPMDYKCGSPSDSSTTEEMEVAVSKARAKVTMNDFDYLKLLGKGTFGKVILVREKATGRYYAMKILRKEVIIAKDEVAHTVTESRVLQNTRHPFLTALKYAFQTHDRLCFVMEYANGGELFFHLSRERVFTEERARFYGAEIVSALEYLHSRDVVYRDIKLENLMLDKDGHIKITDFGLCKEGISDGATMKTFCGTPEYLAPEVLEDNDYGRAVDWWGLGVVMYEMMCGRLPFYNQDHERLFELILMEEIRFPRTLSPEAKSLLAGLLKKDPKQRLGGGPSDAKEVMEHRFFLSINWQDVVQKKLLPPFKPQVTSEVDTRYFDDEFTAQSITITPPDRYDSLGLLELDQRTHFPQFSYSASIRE

[22] = biological target: FGFR1 (human) (UniProt P11362)
[23] = biological target: PRKD3 (human) (UniProt O94806)
Sequence of PRKD3 (human) (O94806 whole entry, looked up): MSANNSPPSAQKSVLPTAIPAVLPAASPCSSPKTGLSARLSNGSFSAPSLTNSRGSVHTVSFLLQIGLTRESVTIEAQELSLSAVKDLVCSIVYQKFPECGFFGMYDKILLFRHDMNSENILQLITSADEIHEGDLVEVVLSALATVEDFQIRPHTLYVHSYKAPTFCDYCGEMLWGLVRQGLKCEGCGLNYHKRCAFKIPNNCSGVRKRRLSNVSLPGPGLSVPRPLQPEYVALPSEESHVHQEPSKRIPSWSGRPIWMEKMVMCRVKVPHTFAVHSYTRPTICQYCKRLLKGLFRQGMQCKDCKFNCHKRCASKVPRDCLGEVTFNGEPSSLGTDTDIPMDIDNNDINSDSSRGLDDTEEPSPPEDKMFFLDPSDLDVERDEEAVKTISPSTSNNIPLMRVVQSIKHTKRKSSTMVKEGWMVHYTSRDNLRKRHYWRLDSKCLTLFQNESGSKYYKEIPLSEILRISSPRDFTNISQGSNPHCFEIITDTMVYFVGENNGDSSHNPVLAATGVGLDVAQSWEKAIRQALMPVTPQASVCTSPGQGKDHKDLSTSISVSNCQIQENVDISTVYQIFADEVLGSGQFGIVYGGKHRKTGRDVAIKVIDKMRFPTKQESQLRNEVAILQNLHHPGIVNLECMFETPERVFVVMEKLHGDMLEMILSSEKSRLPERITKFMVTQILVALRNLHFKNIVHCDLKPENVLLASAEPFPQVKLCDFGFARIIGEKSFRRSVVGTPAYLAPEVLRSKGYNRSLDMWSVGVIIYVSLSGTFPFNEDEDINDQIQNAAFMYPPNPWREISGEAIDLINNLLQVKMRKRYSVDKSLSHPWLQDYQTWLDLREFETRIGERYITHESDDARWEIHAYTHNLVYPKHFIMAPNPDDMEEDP

[24] = biological target: ACVR1 (human) (UniProt Q04771)
[25] = biological target: BMPR1A (human) (UniProt P36894)
[26] = biological target: PAK4 (human) (UniProt O96013)
[27] = biological target: SGK3 (human) (UniProt Q96BR1)
[28] = biological target: INSR (human) (UniProt P06213)
[29] = test system: FLT3 (human), P36888 [R834Q]
[30] = biological target: PLK3 (human) (UniProt Q9H4B4)
[31] = biological target: GSK3B (human) (UniProt P49841)
Sequence of GSK3B (human) (P49841 whole entry, looked up): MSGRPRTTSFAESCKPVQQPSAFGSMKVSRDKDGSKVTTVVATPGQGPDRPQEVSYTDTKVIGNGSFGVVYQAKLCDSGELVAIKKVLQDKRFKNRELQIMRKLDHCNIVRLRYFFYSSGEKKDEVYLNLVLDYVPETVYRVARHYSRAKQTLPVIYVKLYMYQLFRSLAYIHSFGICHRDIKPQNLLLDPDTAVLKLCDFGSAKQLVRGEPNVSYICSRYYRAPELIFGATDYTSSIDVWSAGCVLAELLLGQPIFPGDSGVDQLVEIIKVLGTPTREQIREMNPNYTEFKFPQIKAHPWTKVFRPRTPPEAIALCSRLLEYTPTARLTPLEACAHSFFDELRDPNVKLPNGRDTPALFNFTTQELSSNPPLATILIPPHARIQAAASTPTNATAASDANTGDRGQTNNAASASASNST

[32] = biological target: PLK4 (human) (UniProt O00444)
[33] = biological target: PIM1 (human) (UniProt P11309)
[34] = biological target: CHUK (human) (UniProt O15111)
Sequence of CHUK (human) (O15111 whole entry, looked up): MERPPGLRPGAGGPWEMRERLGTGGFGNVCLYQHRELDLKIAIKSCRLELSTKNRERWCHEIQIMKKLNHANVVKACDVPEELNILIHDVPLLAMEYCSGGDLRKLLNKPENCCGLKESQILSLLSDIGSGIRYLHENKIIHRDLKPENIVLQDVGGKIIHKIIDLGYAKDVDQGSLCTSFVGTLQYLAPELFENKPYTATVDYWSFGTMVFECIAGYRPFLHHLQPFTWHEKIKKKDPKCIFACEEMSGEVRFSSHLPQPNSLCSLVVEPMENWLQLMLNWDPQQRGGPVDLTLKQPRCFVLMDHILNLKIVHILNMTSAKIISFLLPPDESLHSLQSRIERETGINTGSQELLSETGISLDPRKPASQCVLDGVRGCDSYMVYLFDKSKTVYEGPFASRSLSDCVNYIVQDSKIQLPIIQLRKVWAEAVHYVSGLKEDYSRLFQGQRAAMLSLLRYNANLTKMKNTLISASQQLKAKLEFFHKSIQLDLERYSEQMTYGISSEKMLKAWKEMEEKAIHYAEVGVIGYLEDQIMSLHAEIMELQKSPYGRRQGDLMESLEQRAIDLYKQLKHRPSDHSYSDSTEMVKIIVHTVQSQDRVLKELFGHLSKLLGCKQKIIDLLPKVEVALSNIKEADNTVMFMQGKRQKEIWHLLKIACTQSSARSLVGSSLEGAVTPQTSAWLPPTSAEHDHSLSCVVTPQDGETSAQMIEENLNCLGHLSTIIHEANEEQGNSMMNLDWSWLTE

[35] = biological target: MAP3K1 (human) (UniProt Q13233)
[36] = biological target: SIK1 (human) (UniProt P57059)
[37] = biological target: PAK3 (human) (UniProt O75914)
[38] = biological target: ACVR1B (human) (UniProt P36896)
[39] = biological target: MST4 (human) (UniProt Q9P289)
Sequence of MST4 (human) (Q9P289 whole entry, looked up): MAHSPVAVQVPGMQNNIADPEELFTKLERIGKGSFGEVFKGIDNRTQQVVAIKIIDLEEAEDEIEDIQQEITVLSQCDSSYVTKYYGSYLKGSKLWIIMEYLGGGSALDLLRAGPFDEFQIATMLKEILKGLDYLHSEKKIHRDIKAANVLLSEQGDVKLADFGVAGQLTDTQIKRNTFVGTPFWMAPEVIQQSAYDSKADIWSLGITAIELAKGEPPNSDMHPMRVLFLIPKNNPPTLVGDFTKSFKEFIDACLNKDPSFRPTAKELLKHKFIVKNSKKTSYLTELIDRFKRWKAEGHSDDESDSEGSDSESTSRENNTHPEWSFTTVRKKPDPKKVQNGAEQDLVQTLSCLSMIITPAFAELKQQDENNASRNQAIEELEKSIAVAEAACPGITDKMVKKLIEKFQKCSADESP

[40] = biological target: PRKCH (human) (UniProt P24723)
Sequence of PRKCH (human) (P24723 whole entry, looked up): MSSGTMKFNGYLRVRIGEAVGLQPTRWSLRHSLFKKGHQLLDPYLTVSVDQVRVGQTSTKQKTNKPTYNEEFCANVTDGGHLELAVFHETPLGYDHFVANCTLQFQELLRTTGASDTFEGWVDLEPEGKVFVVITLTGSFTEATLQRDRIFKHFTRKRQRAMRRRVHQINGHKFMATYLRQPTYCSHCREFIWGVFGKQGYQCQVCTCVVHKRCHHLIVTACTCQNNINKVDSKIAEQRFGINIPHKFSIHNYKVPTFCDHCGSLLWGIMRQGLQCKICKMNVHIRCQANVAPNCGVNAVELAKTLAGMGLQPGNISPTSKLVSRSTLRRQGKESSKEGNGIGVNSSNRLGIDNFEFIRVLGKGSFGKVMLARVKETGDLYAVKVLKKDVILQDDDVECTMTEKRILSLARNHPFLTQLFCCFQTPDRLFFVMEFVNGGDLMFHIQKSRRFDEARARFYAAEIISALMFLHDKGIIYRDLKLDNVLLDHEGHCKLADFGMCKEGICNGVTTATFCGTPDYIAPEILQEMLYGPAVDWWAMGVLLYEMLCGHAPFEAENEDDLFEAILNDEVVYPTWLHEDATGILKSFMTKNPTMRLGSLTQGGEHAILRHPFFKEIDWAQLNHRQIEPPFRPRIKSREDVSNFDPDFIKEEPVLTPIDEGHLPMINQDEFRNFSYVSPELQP

Row | SMILES | kinase still bound, per cent of control [1] | kinase still bound, per cent of control [2] | kinase still bound, per cent of control [3] | kinase still bound, per cent of control [4] | kinase still bound, per cent of control [5] | kinase still bound, per cent of control [6] | kinase still bound, per cent of control [7] | kinase still bound, per cent of control [8] | kinase still bound, per cent of control [9] | kinase still bound, per cent of control [10] | kinase still bound, per cent of control [11] | kinase still bound, per cent of control [12] | kinase still bound, per cent of control [13] | kinase still bound, per cent of control [14] | kinase still bound, per cent of control [15] | kinase still bound, per cent of control [16] | kinase still bound, per cent of control [17] | kinase still bound, per cent of control [18] | kinase still bound, per cent of control [19] | kinase still bound, per cent of control [20] | other results
1 | C=CC(=O)Nc1cc(-n2c(=O)ccc3cnc4ccc(-c5cn[nH]c5)cc4c32)ccc1C | 100% | 59% | 18% | 84% | 100% | 100% | 76% | 97% | 47% | 94% | 11% | 53% | 67% | 72% | 6.2% | 48% | 49% | 100% | 97% | 0.1% | kinase still bound, per cent of control [21]: 87%; kinase still bound, per cent of control [22]: 80%; kinase still bound, per cent of control [23]: 98%; kinase still bound, per cent of control [24]: 29%; kinase still bound, per cent of control [25]: 12%; kinase still bound, per cent of control [26]: 100%; kinase still bound, per cent of control [27]: 96%; kinase still bound, per cent of control [28]: 90%; kinase still bound, per cent of control [29]: 12%; kinase still bound, per cent of control [30]: 99%; kinase still bound, per cent of control [31]: 84%; kinase still bound, per cent of control [32]: 66%; kinase still bound, per cent of control [33]: 70%; kinase still bound, per cent of control [34]: 100%; kinase still bound, per cent of control [35]: 97%; kinase still bound, per cent of control [36]: 77%; kinase still bound, per cent of control [37]: 81%; kinase still bound, per cent of control [38]: 100%; kinase still bound, per cent of control [39]: 79%; kinase still bound, per cent of control [40]: 100%
2 | COc1cc2ncnc(-n3nc(-c4ccccn4)nc3N)c2cc1OC | 45% | 100% | 2.6% | 100% | 51% | 65% | 66% | 100% | 40% | 9% | 100% | 11% | 12% | 76% | 20% | 0% | 9.1% | 100% | 0.4% | 0.1% | kinase still bound, per cent of control [21]: 42%; kinase still bound, per cent of control [22]: 65%; kinase still bound, per cent of control [23]: 42%; kinase still bound, per cent of control [24]: 0.2%; kinase still bound, per cent of control [25]: 0.3%; kinase still bound, per cent of control [26]: 72%; kinase still bound, per cent of control [27]: 74%; kinase still bound, per cent of control [28]: 91%; kinase still bound, per cent of control [29]: 22%; kinase still bound, per cent of control [30]: 33%; kinase still bound, per cent of control [31]: 100%; kinase still bound, per cent of control [32]: 0.2%; kinase still bound, per cent of control [33]: 15%; kinase still bound, per cent of control [34]: 44%; kinase still bound, per cent of control [35]: 66%; kinase still bound, per cent of control [36]: 45%; kinase still bound, per cent of control [37]: 12%; kinase still bound, per cent of control [38]: 14%; kinase still bound, per cent of control [39]: 68%; kinase still bound, per cent of control [40]: 100%
